In data set [1] the test system is barley. To be noted: cited from earlier work; for quantity sufficient to affect the growth by 50%: barley (monocotyledonous), aqueous solution containing 10% ethanol.
A short description of data set [2]: Peroxide deterioration tests. The format is physicochemical.
The subject of data set [3] is turf. The experiment in a line: Selectivity: turf impact rating (0-3), targeted applications. The data set is classed as in vivo. Conditions: doses below 0.1 g/plant; without co-ingredient; after 7 days; rating 0 to 3. The protocol: Selectivity of the effect: absence of a pronounced effect of the herbicide on the desirable plants assessed based on an impact rating on the latter, varying from 0 to 3 in the case of turf. [table] The experiment was conducted using a randomized complete block design. Five repetitions were done for each treatment. Treatment: 4Cl-IAA without co-ingredient Dependent variable: Impact rating (from 0 to 3) on the turf assessed after 7 days.

Data set [4] relates to dandelion. The experiment in a line: Dandelion control, targeted applications on turfed terrain (damage rating 0-5, mortality %). The format is in vivo, Taraxacum officinale. Conditions: for control efficacy (damage rating and mortality percentage): 0.014 to 0.036 g/plant. The method, then: (§1) Control: eradication of weeds assessed, after a certain length of time, based on a visible damage rating of the foliage, varying from 0 to 5, and/or the mortality percentage observed on the treated plants.
The experiment was conducted using a randomized complete block design. Four repetitions were done for each treatment.
Dependent variable: mean damage rating (from 0 to 5) with the variation coefficient assessed after 42 days.
Dependent variable: Mean mortality percentage with the variation coefficient assessed after 42 days.
Treatment: solution of 4Cl-IAA applied at a dose of 0.03 g/plant containing 10% urea as co-ingredient
Dependent variable: mean damage rating (from 0 to 5)
The experiment was conducted using a randomized complete block design. Four repetitions were done for each treatment, except for 4Cl-IAA methyl ester, where three repetitions were done.
Treatment: the applied quantities varied from 0.014 to 0.036 g/plant, except for IAA, where the quantity was higher (0.2 g/plant) in light of the information found in the literature on the effect of the latter.
Dependent variable: mean damage rating (from 0 to 5) and mean mortality percentage assessed between 28 and 35 days after application

Data set [5] is described as follows: Storage stability of finished product. The format is physicochemical. To be noted: finished product incorporating the molecule; room temperature.
For data set [6], the system named is dicotyledonous weed species. The experiment in a line: Weed species controlled with targeted applications (Example 10). Conditions: 0.022 to 0.036 g/plant; after 21 to 40 days depending on the species; weed species of Table 4. The data set is classed as in vivo. The protocol: The experiments were conducted according to completely randomized design and randomized complete block design with targeted applications for weed control on various terrain covered in turf.
Treatment: 4Cl-IAA without co-ingredient with doses varying from 0.022 to 0.036 g/plant
Variables: Observation of a damage rating above 4 and a mortality percentage above 80%, assessed after a period of 21 to 40 days, depending on the species.

Data set [7] relates to peas and mustard. To be noted: aqueous solution containing 10% ethanol; cited from earlier work.
Data set [8] relates to turf. Put plainly: Selectivity: turf impact rating (0-3), spreading applications. The format is in vivo. To be noted: for Turf impact rating: 100 mL/m^2, after 50 days. The method, then:
Selectivity of the effect: absence of a pronounced effect of the herbicide on the desirable plants assessed based on an impact rating on the latter, varying from 0 to 3 in the case of turf.
(§2) The experiment was conducted using a randomized complete block design. Three repetitions were done for each treatment with surface areas of 0.5 m^2.
(§3) Treatment: 4Cl-IAA without co-ingredient with an application rate of 100 mL/m^2
(§4) Dependent variable: mean damage rating (from 0 to 5) of the dandelion and mean impact rating (from 0 to 3) on the turf assessed after 50 days
The experiment was conducted using a completely randomized design with surface areas of 2 m^2 per treatment.
Dependent variable: impact rating (from 0 to 3) on the turf assessed after 4 and 90 days

Data set [9] has as its system plantain. Put plainly: Plantain control, second targeted application. The format is in vivo, Plantago sp. Conditions: 0.015, 0.023 and 0.030 g/plant; without co-ingredient. The protocol:
The experiment was conducted using randomized complete block design. Four repetitions were done for each treatment. Treatment: 4Cl-IAA without co-ingredient at three doses, i.e., 0.015, 0.023 and 0.030 g/plant Dependent variable: mean mortality percentage

The test system of data set [10] is dandelion. Put plainly: Dandelion control, spreading applications (damage rating 0-5). Conditions: 100 mL/m^2, after 50 days. The format is in vivo, Taraxacum officinale. The method, then:
as §1, §2, §3, §4

Setting [11] is: 28 to 35 days after application.
The mark [12] stands for this setting: 0.2 g/plant, 28 to 35 days after application.

`O=C(O)COc1ccc(Cl)cc1Cl` [2,4-D, 2,4-dichlorophenoxyacetic acid, reference compound]: the “quantity sufficient to affect the growth by 50%” value in [1] is reported as 0.5 g/m^2.
Take `O=C(O)Cc1c[nH]c2cccc(Cl)c12` [4Cl-IAA, 4-chloroindole-3-acetic acid]: in [1], the “quantity sufficient to affect the growth by 50%” value is recorded as 0.17 g/m^2. Besides, the “sensitivity of the monocotyledonous plant compared with 2,4-D” value in [1] (barley) is recorded as “three times higher”. Besides, the “stability in peroxide deterioration tests” value in data set [2] is “a certain stability”. Also, in data set [3], the turf impact entry is recorded as “zero to acceptable”. Besides, in data set [4] (setting [11]), the “control efficacy (damage rating and mortality percentage)” value is reported as “control efficacies close to those observed with a 2,4-D-based herbicide”. Moreover, the damage rating entry was “only a small effect” in data set [4] (after 3 days, solution containing 0.45% of 4Cl-IAA, rating 0 to 5) and “above 4” in data set [6]. The “damage rating for dandelion control” value in [4] (after 35 days, solution containing 0.45% of 4Cl-IAA, rating 0 to 5) came to 5. In [4] (dose 0.0075 g per plant, without vs with chelating agent (HEDTA or EDDS), rating 0 to 5), the “damage rating on dandelions” value stood at 3.1. Further, the “decrease of the mortality percentage” value in data set [4] (doses below 0.01 g/plant, without co-ingredient, after 42 days) is recorded as “about 50%”. The stability in storage result in data set [5] is reported as “stability over two years”. Further, the mortality percentage result in data set [6] is “above 80%”. For the same compound, the “impact on the growth of dicotyledonous plants compared to 2,4-D” value in [7] is listed as “about 4 times lower”. The “impact rating on the turf” value in data set [8] (dose 0.25 g/m^2, after 4 days) was 0; in [8] (dose 0.25 g/m^2, after 90 days), 0; in data set [8] (dose 0.6 g/m^2, after 4 days) it was 1; in data set [8] (dose 0.6 g/m^2, after 90 days) it was 0; in data set [8] (dose 0.9 g/m^2, after 4 days) it was 1; in data set [8] (dose 0.9 g/m^2, after 90 days) it was 0. In addition, the “impact rating on the turf” value turned out to be 2 in data set [8] (dose 1.0 g/m^2, after 4 days); 0 in data set [8] (dose 1.0 g/m^2, after 90 days); 3 in data set [8] (dose 1.2 g/m^2, after 4 days); 0 in [8] (dose 1.2 g/m^2, after 90 days). In addition, the Turf impact rating in data set [8] (dose 0.3 g/m^2) came out at 0.7; in [8] (dose 0.6 g/m^2) it was 1.7; in data set [8] (dose 1.0 g/m^2) it was 1.7; in data set [8] (dose 1.2 g/m^2), 2.0. Besides, in [9], the “control efficacy (mean mortality percentage), effect of a second application” value is “pronounced improvement in the control efficacy”. Also, the Dandelion damage rating was found to be 3.0 in data set [10] (dose 0.3 g/m^2), 4.1 in data set [10] (dose 0.6 g/m^2), 3.8 in data set [10] (dose 1.0 g/m^2) and 3.9 in data set [10] (dose 1.2 g/m^2).
As for `O=C(O)Cc1c[nH]c2ccccc12` [IAA, indole-3-acetic acid], in data set [4] (setting [12]), the mean damage rating entry was “interesting damage rating” and the mean mortality percentage entry is reported as “low mortality percentage”.
Turning to `COC(=O)Cc1c[nH]c2cccc(Cl)c12` [methyl ester of 4Cl-IAA], the “control efficacy (damage rating and mortality percentage)” value in data set [4] (setting [11]) is “control efficacies close to those observed with a 2,4-D-based herbicide”.
